Data: US4530836A, “Peptide” (Amano Pharmaceutical Co., Ltd., priority 1983, dated 1985)
Read-outs that look alike come from different tables or passages of the source. Starred links: 1 amine or outer side, 2 acyl side, 3 side chain; linkers in the order of their positions; H or OH if unused. Non-standard residues stand in square brackets, D forms with d. Residues, ends and D or L forms follow the SMILES beside them. sY = N[C@@H](Cc1ccc(OS(=O)(=O)O)cc1)C(=O)O; Glutaryl = O=C(CCCC(=O)[*:2])[*:1]; pGlu = O=C1CC[C@@H](C(=O)O)N1; Suc = O=C(CCC(=O)[*:2])[*:1]

Columns and labels:
gallbladder = format: in vivo, guinea pig; settings: for Gallbladder contracting activity (in words): compared with CCK-8
Experimental: This test was in accordance with the method of G. Bertaccini et al. [Br. J. Pharmacol., 34, 291-310 (1968)].
Male Hartley guinea pigs (weighing 400-600 g) was anesthetized with urethane and fixed at the supine position. After laparotomy, the top of the gallbladder was clamped with a Serre-fine which was connected to a FD pickup (model: SB-IT, NIHON KOHDEN KOGYO Co., Ltd.), and the contraction was recorded on a recorder (model: PJB-3012, made by the above company) through a preamplifier (model: RUP-25, made by the above company). A standard solution and the invented peptide solutions were injected into the jugular vein, and the relative potency was determined from the peak height of the gallbladder contraction.

[1] = system: pancreatic external secretion; test: Acceleration of pancreatic external secretion (method of Dockray), i.v. in rats, compared with CCK-8; format: in vivo, rat; settings: male Wistar rats, 30 minutes after administration
Experimental: This test was conducted in accordance with the method of Dockray [J. Physiol., 225, 679-692 (1972)]. Male Wistar rats (weighing about 280 g) were deprived for 24 hours and under anesthesia the gastric pylorus and the duodenal side end of the common hepatic duct were ligated. A canula for collection of pancreatic juice was inserted into the duct in the retrograde fashion. The bile was led into the duodenum. Varying concentrations of the control solution (CCK-8 solution) and solutions of the invented peptides in a volume of 50 μl were administered intravenously every one hour, thus determining the increment in the secretion rate of the pancreatic juice and protein during 30 minutes after administration, wherein the amount of the whole protein secreted was determined from the ultraviolet absorbance at 280 nm of the pancreatic juice secreted.

[2] = system: pancreatic external secretion; test: Pancreatic external secretion accelerating activity (protein secretion), compared with tetragastrin; format: in vivo, rat; settings: rats, i.v., increment in protein secretion rate during 30 minutes (UV 280 nm); tetragastrin = 1.0
Experimental: This test was conducted in accordance with the method of Dockray [J. Physiol., 225, 679-692 (1972)]. Male Wistar rats (weighing about 280 g) were deprived for 24 hours and under anesthesia the gastric pylorus and the duodenal side end of the common hepatic duct were ligated. A canula for collection of pancreatic juice was inserted into the duct in the retrograde fashion. The bile was led into the duodenum. […] The test was conducted in the same manner as stated already. The increment in the secretion rate of the protein in the pancreatic during 30 minutes after administration of the test solution was determined from the ultraviolet absorbance at 280 nm of the pancreatic juice. The found values were compared with that of tetragastrin.

gastric acid secretion = test: Gastric acid secretion accelerating activity in Shay rats; format: in vivo, rat; settings: pylorus-ligated male Wistar rats, i.v., gastric juice 2 hours after administration; tetragastrin = 1.0
Experimental: This test was conducted with Shay rats [H, Shay et al., Gastroenterology, 5, 43 (1945)] prepared. Employing male Wistar rats (weighing 270-310 g) deprived for 24 hours, the gastric pylorus was ligated under ether-anesthesia. Immediately thereafter, the invented peptides and tetragastrin as a control were administered intravenously. Gastric juice was withdrawn 2 hours after administration, and its amount and the total amount of acid secreted were measured to determine the relative potency based on tetragastrin.

[3] = male Hartley guinea pigs, injection into jugular vein, from peak height of gallbladder contraction, CCK-8 = 100

Molecule	Gallbladder contracting activity, relative potency (gallbladder; guinea pig, in vivo)	Gallbladder contracting activity (in words) (gallbladder; guinea pig)	Increased amount of the pancreatic juice secreted (in words) [1]	Pancreatic external secretion accelerating activity, relative potency [2]	Gastric acid secretion accelerating activity, relative potency (gastric acid secretion)	Gallbladder contracting activity, relative potency (gallbladder; [3])
CSCC[C@H](NC(=O)[C@H](Cc1ccc(OS(=O)(=O)O)cc1)NC(=O)[C@@H](N)CC(=O)O)C(=O)NCC(=O)N[C@@H](Cc1c[nH]c2ccccc12)C(=O)N[C@@H](CCSC)C(=O)N[C@@H](CC(=O)O)C(=O)N[C@@H](Cc1ccccc1)C(N)=O [CCK-8, Asp-Tyr(SO3 H)-Met-Gly-Trp-Met-Asp-Phe-NH2, reference compound]	100					
CSCC[C@H](NC(=O)[C@H](Cc1c[nH]c2ccccc12)NC(=O)CNC(=O)[C@H](CCSC)NC(=O)[C@H](Cc1ccc(OS(=O)(=O)O)cc1)NC(=O)CCC(=O)O)C(N)=O [Compound I, Suc-Tyr(SO3 H)-Met-Gly-Trp-Met-NH2] (Suc-[sY]MGWM-NH2)	0	no activity	no active effect			
CSCC[C@H](NC(=O)[C@H](Cc1ccc(OS(=O)(=O)O)cc1)NC(=O)CCC(=O)O)C(=O)NCC(=O)N[C@@H](Cc1c[nH]c2ccccc12)C(=O)N[C@@H](CCSC)C(=O)N[C@@H](CC(=O)O)C(N)=O [Compound II, Suc-Tyr(SO3 H)-Met-Gly-Trp-Met-Asp-NH2] (Suc-[sY]MGWMD-NH2)	0	no activity	no active effect			
CSCC[C@H](NC(=O)[C@H](Cc1c[nH]c2ccccc12)NC(=O)[C@@H](Cc1c[nH]c2ccccc12)NC(=O)[C@H](CCSC)NC(=O)[C@H](Cc1ccc(OS(=O)(=O)O)cc1)NC(=O)CCC(=O)O)C(=O)N[C@@H](CC(=O)O)C(=O)N[C@@H](Cc1ccccc1)C(N)=O [Compound IV, Suc-Tyr(SO3 H)-Met-D-Trp-Trp-Met-Asp-Phe-NH2] (Suc-[sY]M[dW]WMDF-NH2)	5.0	mild	comparable to that of CCK-8			
CSCC[C@H](NC(=O)[C@H](Cc1ccc(OS(=O)(=O)O)cc1)NC(=O)[C@H](CC(=O)O)NC(=O)CCN)C(=O)NCC(=O)N[C@@H](Cc1c[nH]c2ccccc12)C(=O)N[C@@H](CCSC)C(=O)N[C@@H](CC(=O)O)C(=O)N[C@@H](Cc1ccccc1)C(N)=O [Compound IX, β-Ala-Asp-Tyr(SO3 H)-Met-Gly-Trp-Met-Asp-Phe-NH2]	113	comparable activities with CCK-8	about half of that of CCK-8			
CSCC[C@H](NC(=O)[C@H](Cc1c[nH]c2ccccc12)NC(=O)[C@@H](Cc1c[nH]c2ccccc12)NC(=O)[C@H](CCSC)NC(=O)[C@H](Cc1ccc(OS(=O)(=O)O)cc1)NC(=O)CCCC(=O)O)C(=O)N[C@@H](CC(=O)O)C(=O)N[C@@H](Cc1ccccc1)C(N)=O [Compound V, Glt-Tyr(SO3 H)-Met-D-Trp-Trp-Met-Asp-Phe-NH2] (Glutaryl-[sY]M[dW]WMDF-NH2)	< 1.0	little activity	comparable to that of CCK-8			
CSCC[C@H](NC(=O)[C@H](Cc1ccc(OS(=O)(=O)O)cc1)NC(=O)[C@H](CC(=O)O)NC(=O)CN)C(=O)NCC(=O)N[C@@H](Cc1c[nH]c2ccccc12)C(=O)N[C@@H](CCSC)C(=O)N[C@@H](CC(=O)O)C(=O)N[C@@H](Cc1ccccc1)C(N)=O [Compound VIII, Gly-Asp-Tyr(SO3 H)-Met-Gly-Trp-Met-Asp-Phe-NH2]	97	comparable activities with CCK-8	comparable to that of CCK-8			
CSCC[C@H](NC(=O)[C@H](Cc1c[nH]c2ccccc12)NC(=O)CNC(=O)[C@H](Cc1ccc(OS(=O)(=O)O)cc1)NC(=O)[C@H](C)NC(=O)CCCC(=O)O)C(=O)N[C@@H](CC(=O)O)C(=O)N[C@@H](Cc1ccccc1)C(N)=O [Compound X, Glt-Ala-Tyr(SO3 H)-Gly-Trp-Met-Asp-Phe-NH2] (Glutaryl-A[sY]GWMDF-NH2)				258.8	6.1	
CSCC[C@H](NC(=O)[C@H](Cc1c[nH]c2ccccc12)NC(=O)CNC(=O)[C@H](Cc1ccc(OS(=O)(=O)O)cc1)NC(=O)[C@H](C)NC(=O)[C@@H]1CCC(=O)N1)C(=O)N[C@@H](CC(=O)O)C(=O)N[C@@H](Cc1ccccc1)C(N)=O [Compound XI, pGlu-Ala-Tyr(SO3 H)-Gly-Trp-Met-Asp-Phe-NH2] ([pGlu]A[sY]GWMDF-NH2)				50.0	2.0	
CSCC[C@H](NC(=O)[C@@H](N)Cc1c[nH]c2ccccc12)C(=O)N[C@@H](CC(=O)O)C(=O)N[C@@H](Cc1ccccc1)C(N)=O [Tetragastrin, reference compound]				1.0	1.0	
Suc-Phe(NHSO3 H)-Met-Gly-Trp-Met-Asp-Phe-NH2 [Compound VII]		little activity	no active effect			< 1.0
Suc-Tyr(SO3 H)-Met-D-Ala-Trp-Met-Asp-Phe-NH2 [Compound III]		mild				8.7
